Converted amounts (≈) assume the structure as drawn.
What was measured:
Format in all cases: functional, cell-based
Vero = test: Cytotoxicity against Chlorocebus aethiops (African green monkey) Vero cells by MTT assay; settings: Chlorocebus sabaeus
Erythrocyte = test: Hemolytic activity in Homo sapiens (human) Erythrocyte after 30 min; settings: 0.5 h
HeLa = test: Cytotoxicity against Homo sapiens (human) HeLa cells by MTT assay

## Cc1ccc2[nH]c3c(c2c1)CCc1c-3nc2ccc(Cl)cc2c1-c1ccccc1
Vero
  IC50: > 100 µg/mL
Erythrocyte
  EC50: 212 µg/mL (≈ 537 µM)
HeLa
  IC50: > 100 µg/mL

## Cc1cccc2c3c([nH]c12)-c1nc2ccc(Cl)cc2c(-c2ccccc2)c1CC3
Vero
  IC50: > 100 µg/mL
Erythrocyte
  EC50: 458 µg/mL (≈ 1160 µM)
HeLa
  IC50: > 100 µg/mL

## Cc1ccc2c3c([nH]c2c1)-c1nc2ccc(Cl)cc2c(-c2ccccc2)c1CC3
Vero
  IC50: > 100 µg/mL
Erythrocyte
  EC50: 409 µg/mL (≈ 1030 µM)
HeLa
  IC50: > 100 µg/mL

## CC[C@@]1(O)C(=O)OCc2c1cc1n(c2=O)Cc2cc3ccccc3nc2-1 [CAMPTOTHECIN]
Vero
  IC50: 58 µg/mL (≈ 166 µM)
Erythrocyte
  EC50: 430 µg/mL (≈ 1230 µM)
HeLa
  IC50: 0.28 µg/mL (≈ 0.804 µM)

Source: ChEMBL document CHEMBL3046074, “SnO2 nanoparticles mediated nontraditional synthesis of biologically active 9-chloro-6,13-dihydro-7-phenyl-5H-indolo [3,2-c]-acridine derivatives” (Med Chem Res, 2011)
